Results published in US20260207602A1, “EGFR INHIBITORS” (Blueprint Medicines Corporation, priority 2022, published 2026).

Experiments:
[1] = target: intracellular phosphorylation of EGFR (Tyr1068) in PC-9 cells (Homo sapiens, UniProt P00533, DEL746-750); test: PC-9 pEGFR AlphaLISA assay; type: cell-based; conditions: 4 hours incubation, read-out: Phos EGFR PC9 IC50
Outline: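 PC-9 cells (EGFR del746-750) in phenol-free DMEM/10% FBS, adhered overnight, then exposed to 10-point 4-fold compound dilutions for 4 h at 37 °C. Lysates assayed for pEGFR Tyr1068 by AlphaLISA SureFire Ultra; IC50 from percent pEGFR inhibition vs log concentration.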

EGFR (d746-750) = target: T1, EGFR (d746-750) (Homo sapiens, UniProt P00533, DEL746-750); test: Biochemical EGFR inhibition assay (Caliper mobility shift), EGFR (d746-750); conditions: biochemical Caliper mobility shift assay, EGFR Exon 19-del enzyme; read-out: Enz EGFR Exon 19-del IC50
T1 construct: purchased SignalChem E10-122JG
Outline: (§1)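 Apparent IC50 from Caliper separation of phospho-peptide from substrate. Conditions: 2.5 µM 5-FAM peptide, 1.0 mM ATP or ATP Km, pH 7.5 HEPES buffer, room temperature, 10–20% conversion, EDTA stop.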

EGFR L858R = target: T2, EGFR L858R (Homo sapiens, UniProt P00533, L858R); test: Biochemical EGFR inhibition assay (Caliper mobility shift), EGFR L858R; conditions: biochemical Caliper mobility shift assay, EGFR L858R enzyme; read-out: Enz EGFR L858R IC50
T2 construct: purchased SignalChem E10-122BG
Outline: as §1

T2 sequence (P00533 25-1210 L858R): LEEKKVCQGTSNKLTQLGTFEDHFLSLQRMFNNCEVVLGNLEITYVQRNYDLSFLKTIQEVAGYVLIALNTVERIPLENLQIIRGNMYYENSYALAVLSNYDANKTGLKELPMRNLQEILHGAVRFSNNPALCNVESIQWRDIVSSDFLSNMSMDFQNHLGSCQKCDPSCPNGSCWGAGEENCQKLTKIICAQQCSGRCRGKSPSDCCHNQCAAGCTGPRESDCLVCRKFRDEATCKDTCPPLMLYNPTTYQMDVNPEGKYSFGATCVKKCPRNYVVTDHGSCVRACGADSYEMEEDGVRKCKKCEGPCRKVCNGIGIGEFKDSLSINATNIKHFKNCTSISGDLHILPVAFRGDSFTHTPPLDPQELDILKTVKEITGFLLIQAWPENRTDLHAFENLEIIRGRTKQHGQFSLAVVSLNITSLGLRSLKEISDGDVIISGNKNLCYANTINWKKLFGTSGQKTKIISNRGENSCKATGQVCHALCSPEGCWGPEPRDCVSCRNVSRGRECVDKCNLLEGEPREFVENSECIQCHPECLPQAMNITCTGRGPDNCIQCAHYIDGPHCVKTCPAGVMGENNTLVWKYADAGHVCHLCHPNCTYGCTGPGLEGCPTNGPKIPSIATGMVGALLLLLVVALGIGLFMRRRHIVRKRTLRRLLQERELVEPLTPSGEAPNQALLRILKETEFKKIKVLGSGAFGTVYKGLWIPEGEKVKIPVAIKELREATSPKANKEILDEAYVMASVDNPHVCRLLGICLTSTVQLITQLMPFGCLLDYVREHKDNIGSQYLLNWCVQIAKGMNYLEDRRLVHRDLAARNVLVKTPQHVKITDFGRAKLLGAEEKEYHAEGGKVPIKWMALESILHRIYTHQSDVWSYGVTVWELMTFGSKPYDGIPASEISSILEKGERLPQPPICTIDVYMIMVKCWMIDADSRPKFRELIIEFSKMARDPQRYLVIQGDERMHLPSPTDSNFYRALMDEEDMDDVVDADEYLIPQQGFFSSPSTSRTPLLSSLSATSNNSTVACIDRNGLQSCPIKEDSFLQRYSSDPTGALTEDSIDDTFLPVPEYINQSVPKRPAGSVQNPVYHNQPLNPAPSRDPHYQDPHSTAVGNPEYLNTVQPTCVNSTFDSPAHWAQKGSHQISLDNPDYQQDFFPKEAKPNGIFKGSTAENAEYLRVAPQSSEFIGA
intracellular phosphorylation of EGFR (Tyr1068) in PC-9 cells, sequence (P00533 with tags, fused parts or gaps DEL746-750): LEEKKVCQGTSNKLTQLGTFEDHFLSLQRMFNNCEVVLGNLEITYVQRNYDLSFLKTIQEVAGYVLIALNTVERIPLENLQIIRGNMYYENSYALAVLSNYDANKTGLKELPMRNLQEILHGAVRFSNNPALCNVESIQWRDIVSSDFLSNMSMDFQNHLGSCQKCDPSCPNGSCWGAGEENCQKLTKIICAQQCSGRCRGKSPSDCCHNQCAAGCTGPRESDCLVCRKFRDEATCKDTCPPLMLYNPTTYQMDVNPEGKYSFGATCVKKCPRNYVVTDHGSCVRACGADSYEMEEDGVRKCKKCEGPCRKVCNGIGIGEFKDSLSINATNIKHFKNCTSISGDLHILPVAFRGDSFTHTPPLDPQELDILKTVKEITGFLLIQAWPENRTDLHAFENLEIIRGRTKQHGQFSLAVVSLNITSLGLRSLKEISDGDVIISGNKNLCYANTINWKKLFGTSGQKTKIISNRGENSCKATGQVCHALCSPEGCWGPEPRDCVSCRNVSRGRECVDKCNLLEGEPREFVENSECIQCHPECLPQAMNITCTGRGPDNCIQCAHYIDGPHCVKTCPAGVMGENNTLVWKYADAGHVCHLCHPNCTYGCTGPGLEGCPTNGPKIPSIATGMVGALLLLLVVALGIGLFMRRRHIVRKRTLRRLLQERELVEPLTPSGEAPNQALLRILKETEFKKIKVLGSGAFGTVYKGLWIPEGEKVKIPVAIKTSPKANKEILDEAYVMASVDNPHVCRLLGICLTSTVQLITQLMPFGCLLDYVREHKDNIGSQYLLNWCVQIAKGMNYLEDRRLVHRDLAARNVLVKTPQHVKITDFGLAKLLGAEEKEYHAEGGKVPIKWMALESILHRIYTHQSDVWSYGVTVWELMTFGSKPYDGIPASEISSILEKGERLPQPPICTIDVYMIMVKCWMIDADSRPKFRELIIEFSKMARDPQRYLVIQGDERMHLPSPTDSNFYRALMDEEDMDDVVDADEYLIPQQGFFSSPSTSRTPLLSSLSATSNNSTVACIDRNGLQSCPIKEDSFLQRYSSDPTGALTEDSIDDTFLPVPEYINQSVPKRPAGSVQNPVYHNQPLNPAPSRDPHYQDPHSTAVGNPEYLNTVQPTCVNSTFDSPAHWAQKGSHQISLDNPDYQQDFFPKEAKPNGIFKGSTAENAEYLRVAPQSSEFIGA
T1 sequence (P00533 with tags, fused parts or gaps DEL746-750 limits assumed): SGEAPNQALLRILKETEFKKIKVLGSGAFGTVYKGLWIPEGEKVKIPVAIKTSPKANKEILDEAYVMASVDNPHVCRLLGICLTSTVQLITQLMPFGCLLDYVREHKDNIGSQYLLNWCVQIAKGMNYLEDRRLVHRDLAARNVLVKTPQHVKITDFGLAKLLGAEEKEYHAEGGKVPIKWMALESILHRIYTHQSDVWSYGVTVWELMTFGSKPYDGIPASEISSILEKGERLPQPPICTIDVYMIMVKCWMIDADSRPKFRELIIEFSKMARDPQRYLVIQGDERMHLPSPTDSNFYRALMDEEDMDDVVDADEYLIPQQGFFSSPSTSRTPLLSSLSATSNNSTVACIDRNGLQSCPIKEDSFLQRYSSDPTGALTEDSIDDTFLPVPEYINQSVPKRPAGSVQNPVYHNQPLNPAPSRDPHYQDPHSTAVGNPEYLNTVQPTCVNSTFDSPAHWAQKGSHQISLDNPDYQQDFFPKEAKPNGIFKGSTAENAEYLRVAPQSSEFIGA

Structure (SMILES) | IC50 [1] [nM] | IC50 (EGFR (d746-750)) [nM] | IC50 (EGFR L858R) [nM]
CCN1CCC(Oc2cc(-c3cnn(C)c3)cc3ncnc(Nc4ccc5ncsc5c4)c23)C1=O (racemic) [Example 58, (rac)-3-((4-(benzo[d]thiazol-6-ylamino)-7-(1-methyl-1H-pyrazol-4-yl)quinazolin-5-yl)oxy)-1-ethylpyrrolidin-2-one] | ≤ 10 | ≤ 10 | ≤ 10
C[C@@H](Oc1cc(N2CC3(COC3)C2)cc2ncnc(Nc3ccc4ncsc4c3)c12)C1COC1 [Example 204, (R)-N-(5-(1-(oxetan-3-yl)ethoxy)-7-(2-oxa-6-azaspiro[3.3]heptan-6-yl)quinazolin-4-yl)benzo[d]thiazol-6-amine] | ≤ 10 | ≤ 10 | ≤ 10
Cn1cc(-c2cc(OC[C@]34COC[C@H]3C4)c3c(Nc4ccc5ncsc5c4)ncnc3c2)cn1 (single isomer, unassigned) [Example 147] | 10.1 to 50 | ≤ 10 | 10.1 to 50
COc1cn(C)nc1-c1cc(O[C@H]2CCCN(C)C2)c2c(Nc3ccc4ncsc4c3)ncnc2c1 [Example 245, (S)-N-(7-(4-methoxy-1-methyl-1H-pyrazol-3-yl)-5-((1-methylpiperidin-3-yl)oxy)quinazolin-4-yl)benzo[d]thiazol-6-amine] | 10.1 to 50 | ≤ 10 | ≤ 10
C[C@@H](Oc1cc(N2CCN(C)CC2)cc2ncnc(Nc3ccc4ncsc4c3)c12)C1COC1 (single isomer, unassigned) [Example 96] | 10.1 to 50 | ≤ 10 | ≤ 10
CN1CCC[C@@H]1COc1cc(-c2cnn(C)c2)cc2ncnc(Nc3ccc4ncsc4c3)c12 [Example 33, (R)-N-(7-(1-methyl-1H-pyrazol-4-yl)-5-((1-methylpyrrolidin-2-yl)methoxy)quinazolin-4-yl)benzo[d]thiazol-6-amine] | 10.1 to 50 | ≤ 10 | ≤ 10
CN(C)C1CCC1Oc1cc(-c2cnn(C)c2)cc2ncnc(Nc3ccc4ncsc4c3)c12 [Example 153, N-(5-((1S,2S)-2-(dimethylamino)cyclobutoxy)-7-(1-methyl-1H-pyrazol-4-yl)quinazolin-4-yl)benzo[d]thiazol-6-amine OR N-(5-((1R,2R)-2-(dimethylamino)cyclobutoxy)-7-(1-methyl-1H-pyrazol-4-yl)quinazolin-4-yl)benzo[d]thiazol-6-amine] | 10.1 to 50 | ≤ 10 | ≤ 10
Cn1cc(-c2cc(OCC3(C)COC3)c3c(Nc4ccc5ncsc5c4)ncnc3c2)cn1 [Example 49, N-(7-(1-methyl-1H-pyrazol-4-yl)-5-((3-methyloxetan-3-yl)methoxy)quinazolin-4-yl)benzo[d]thiazol-6-amine] | 10.1 to 50 | ≤ 10 | ≤ 10
Cn1cc(-c2cc(OC3COC3)c3c(Nc4ccc5ncsc5c4)ncnc3c2)c(OC(F)F)n1 [Example 250, N-(7-(3-(difluoromethoxy)-1-methyl-1H-pyrazol-4-yl)-5-(oxetan-3-yloxy)quinazolin-4-yl)benzo[d]thiazol-6-amine] | 10.1 to 50 | ≤ 10 | ≤ 10
CC(Oc1cc(-c2cn(C)nc2OC(F)F)cc2ncnc(Nc3ccc4ncsc4c3)c12)C1COC1 (single isomer, unassigned) [Example 172] | 10.1 to 50 | ≤ 10 | ≤ 10
Cn1cc(-c2cc(O[C@H]3CCOC3)c3c(Nc4ccc5ncsc5c4)ncnc3c2)cn1 [Example 36, (S)-N-(7-(1-methyl-1H-pyrazol-4-yl)-5-((tetrahydrofuran-3-yl)oxy)quinazolin-4-yl)benzo[d]thiazol-6-amine] | ≤ 10 | ≤ 10 | ≤ 10
C[C@@H]1CN(c2cc(O[C@H](C)C3COC3)c3c(Nc4ccc5ncsc5c4F)ncnc3c2)CCN1 (single isomer, unassigned) [Example 100] | 10.1 to 50 | ≤ 10 | 10.1 to 50

Continued, values first:

IC50 [1] [nM] | IC50 (EGFR (d746-750)) [nM] | IC50 (EGFR L858R) [nM] | Structure (SMILES)
≤ 10 | ≤ 10 | ≤ 10 | Cn1cc(-c2cc(O[C@@H]3CC[C@@H](O)C3)c3c(Nc4ccc5ncsc5c4)ncnc3c2)cn1 [Example 410, (1R,3R)-3-((4-(benzo[d]thiazol-6-ylamino)-7-(1-methyl-1H-pyrazol-4-yl)quinazolin-5-yl)oxy)cyclopentan-1-ol]
≤ 10 | ≤ 10 | ≤ 10 | COc1nn(C)cc1-c1cc(O[C@@H]2CCN(C)C[C@@H]2F)c2c(Nc3ccc4ncsc4c3)ncnc2c1 [Example 362, N-(5-(((3S,4R)-3-fluoro-1-methylpiperidin-4-yl)oxy)-7-(3-methoxy-1-methyl-1H-pyrazol-4-yl)quinazolin-4-yl)benzo[d]thiazol-6-amine]
≤ 10 | ≤ 10 | 10.1 to 50 | C[C@H](CO)Oc1cc(N2CCN(C)CC2)cc2ncnc(Nc3ccc4ncsc4c3F)c12 (single isomer, unassigned) [Example 295]
≤ 10 | ≤ 10 | ≤ 10 | CCN1CCN(C(=O)Nc2cc3c(Nc4ccc5ncsc5c4)ncnc3cc2-c2ccn(C)n2)CC1 [Example 253, N-(4-(benzo[d]thiazol-6-ylamino)-7-(1-methyl-1H-pyrazol-3-yl)quinazolin-6-yl)-4-ethylpiperazine-1-carboxamide]
10.1 to 50 | 10.1 to 50 | > 50.1 | CN1CCN(CC#Cc2cc(OC3CCOCC3)c3c(Nc4ccc5ncsc5c4F)ncnc3c2)CC1 [Example A24, 7-fluoro-N-(7-(3-(4-methylpiperazin-1-yl)prop-1-yn-1-yl)-5-((tetrahydro-2H-pyran-4-yl)oxy)quinazolin-4-yl)benzo[d]thiazol-6-amine]
≤ 10 | ≤ 10 | ≤ 10 | COc1nn(C)cc1-c1cc(OC2CCN(CC(F)F)CC2)c2c(Nc3ccc4ncsc4c3)ncnc2c1 [Example 386, N-(5-((1-(2,2-difluoroethyl)piperidin-4-yl)oxy)-7-(3-methoxy-1-methyl-1H-pyrazol-4-yl)quinazolin-4-yl)benzo[d]thiazol-6-amine]
10.1 to 50 | ≤ 10 | ≤ 10 | CN1C[C@H](F)C[C@@H](Oc2cc(-c3cnn(C)c3)cc3ncnc(Nc4ccc5ncsc5c4)c23)C1 (single isomer, unassigned) [Example 333]
10.1 to 50 | ≤ 10 | 10.1 to 50 | CN1CCC(Oc2cc(-c3cnn(C)c3)cc3ncnc(Nc4ccc5scnc5c4)c23)CC1 [Example A03, N-(7-(1-methyl-1H-pyrazol-4-yl)-5-((1-methylpiperidin-4-yl)oxy)quinazolin-4-yl)benzo[d]thiazol-5-amine]
10.1 to 50 | ≤ 10 | ≤ 10 | Cn1cc(-c2cc(OC3COCOC3)c3c(Nc4ccc5ncsc5c4)ncnc3c2)cn1 [Example A59, N-(5-((1,3-dioxan-5-yl)oxy)-7-(1-methyl-1H-pyrazol-4-yl)quinazolin-4-yl)benzo[d]thiazol-6-amine]
10.1 to 50 | ≤ 10 | ≤ 10 | CO[C@@H]1CCN(C)C[C@H]1Oc1cc(-c2cnn(C)c2)cc2ncnc(Nc3ccc4ncsc4c3)c12 (single isomer, unassigned) [Example A40]
≤ 10 | ≤ 10 | ≤ 10 | CN1CCC(n2cc(-c3cc4ncnc(Nc5ccc6ncsc6c5F)c4cc3F)cn2)CC1 [Example 356, 7-fluoro-N-(6-fluoro-7-(1-(1-methylpiperidin-4-yl)-1H-pyrazol-4-yl)quinazolin-4-yl)benzo[d]thiazol-6-amine]
